One block for each compound: values may come before it.
How the values were obtained:
C. kefyr = experiment: Antifungal agar well diffusion, zones of inhibition; format: cell-based; settings: Kluyveromyces marxianus; 50 μg, 48 hours; read-out: zone of growth inhibition, standard
C. utilis (ATCC 29950) = experiment: as above; format: cell-based; settings: Williopsis jadinii, ATCC29950; 50 μg, 48 hours; read-out: zone of growth inhibition, standard
Experimental: (§1) Antifungal testing of these nanoparticles was performed by Kirby-Bauer disc diffusion on agar plates against eight genera of fungi.

[1] = tested on: C. lusitaniae (ATCC 34449); experiment: as above; format: cell-based; settings: Clavispora lusitaniae, ATCC34449; 50 μg, 48 hours; read-out: zone of growth inhibition, standard
Experimental: as §1

C. albicans = experiment: as above; format: cell-based; settings: Candida albicans; 50 μg, 48 hours; read-out: zone of growth inhibition, standard
Experimental: as §1

C. krusei (ATCC 14243) = experiment: as above; format: cell-based; settings: Pichia kudriavzevii, ATCC14243; 50 μg, 48 hours; read-out: zone of growth inhibition, standard
[2] = tested on: C. parapsilosis (ATCC 22019); experiment: as above; format: cell-based; settings: Lodderomyces parapsilosis, ATCC22019; 50 μg, 48 hours; read-out: zone of growth inhibition, standard
C. glabrata (ATCC 15126) = experiment: as above; format: cell-based; settings: Nakaseomyces glabratus, ATCC15126; 50 μg, 48 hours; read-out: zone of growth inhibition, standard
C. tropicalis = experiment: as above; format: cell-based; settings: Candida tropicalis; 50 μg, 48 hours; read-out: zone of growth inhibition, standard
Water solubility = format: physicochemical

Structure (SMILES): Clc1ccccc1C(c1ccccc1)(c1ccccc1)n1ccnc1 [clotrimazole]
zone of inhibition at 50 µg/disc (C. kefyr): 37 mm
zone of inhibition at 50 µg/disc (C. utilis (ATCC 29950)): 24 mm
zone of inhibition at 50 µg/disc [1]: 25 mm
zone of inhibition at 50 µg/disc (C. albicans): 20 mm
zone of inhibition at 50 µg/disc (C. krusei (ATCC 14243)): 27 mm
zone of inhibition at 50 µg/disc [2]: 32 mm
zone of inhibition at 50 µg/disc (C. glabrata (ATCC 15126)): 14 mm
zone of inhibition at 50 µg/disc (C. tropicalis): 20 mm

water solubility (Water solubility): water-insoluble
Structure (SMILES): C=CC(=O)C1C(=O)N(SC)C1c1ccccc1Cl (racemic) [N-methylthiolated β-lactam, 3-acryloyl-N-methylthio-4-(2-chlorophenyl)-2-azetidinone]

melting point: 66 to 68 °C
Structure (SMILES): C=CC(=O)OC(C)OC(=O)c1c2ccccc2cc2ccccc12 (stereo not shown)

— patent US9149440B2, “Nanoparticles for drug-delivery” (UNIVERSITY OF SOUTH FLORIDA, priority 2003, dated 2015)
